Series [1] can be described thus: Stability in glycerol/water. The format is physicochemical. Conditions: glycerol/water (6:4 w/w) at −10 °C for months. The source says: (§1) In contrast, BT2E is insoluble in all of these media.
Series [2] is described as follows: Solubility in aqueous media. The format is physicochemical.
From the text: as §1

Series [3] can be described thus: DNP enhanced 13C-CPMAS NMR experiments (1H polarization enhancement by microwave irradiation). Conditions: 5 mM TOTAPOL, 2 M 13C-urea in d6-DMSO/D2O/H2O, 90 K, 5 T.
Description: Solutions for the DNP/NMR experiments—2 M ^13C-urea or 0.15 M U—^13C—^15N-proline—were prepared in d6-DMSO/D2O/H2O (60:34:6 w/w) or d8-glycerol/D2O/H2O (60:32:8 w/w), and doped with 5 mM TOTAPOL (10 mM electron spins). The reduced ^1H concentration was required to optimize the signal enhancements. DNP experiments using TOTAPOL as a polarizing agent were performed on a custom designed DNP/NMR spectrometer and triple-resonance (e^−, ^1H and ^13C/^15N) cryogenic (90 K) MAS probe^31 operating at 5 T (140 GHz EPR and 211 MHz ^1H NMR). The enhanced ^1H polarization developed by the microwave irradiation was detected indirectly via observation of the cross-polarized (CP) ^13C signals. The 140 GHz microwaves were generated by a gyrotron, a vacuum electron device capable of producing high power (>10 W) millimeter waves^26. In certain embodiments, sapphire, rather than zirconia, rotors are preferred for the DNP experiments since they transmit microwaves with ˜30% less attenuation. […]
The ^1H polarization is initially saturated by a series of 90° pulses followed by a delay of 3 T2. […] Note that the error for the enhancement factor is determined primarily by the uncertainty in measuring the intensity of the un-enhanced NMR signal.

Turning to “1-(2,2,6,6-tetramethyl-1-oxy-4-piperidinyl)oxy-3-(2,2,6,6-tetramethyl-1-oxy-4-piperidinyl)amino-propan-2-ol [TOTAPOL]”, the stability in glycerol/water result in series [1] is “stable”. Besides, the “solubility in 200 mM salt” value in series [2] (200 mM salt, solvent conditions common for protein samples) was “soluble in 200 mM salt”. Also, the solubility in water entry in series [2] (water) is “soluble in water”. In addition, in series [3], the “time constant for growth of the enhanced signal (microwaves on)” value was roughly 5.5 s.

These data come from patent US7985594B2, “Biradical polarizing agents for dynamic nuclear polarization” (Massachusetts Institute of Technology, priority 2006, dated 2011).
